Source: the supplement of paper PMC10331698
± gives the standard deviation of the averaged measurements.

Columns and labels:
Assay in all cases: level (log10 ratio to DMSO vehicle control); higher = higher biomarker level / cell amount than vehicle control
[1] = compound: CN(C(=O)C(F)(F)C(F)(F)C(F)(F)F)[Si](C)(C)C [N-Methyl-N-trimethylsilylheptafluorobutyramide] (in DMSO)
Procedure: (§1)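 BioMAP Diversity Plus panel of 12 human primary cell co-culture systems (3C, 4H, LPS, SAg, BT, BF4T, BE3C, CASM3C, HDF3CGF, KF3CT, MyoF, Mphg). Compounds were added 1 h before stimulation and left for 24 h (MyoF 48 h; BT 72 h for soluble read-outs or 6 d for IgG). Biomarkers were read by ELISA, cytotoxicity by SRB, PBMC viability and proliferation by Alamar Blue. Each well value was divided by the mean of 8 DMSO control wells on the same plate and log10 transformed; duplicate blinded samples were tested at 4 concentrations.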

[2] = compound: CO[Si](C)(CCC(F)(F)C(F)(F)C(F)(F)C(F)(F)C(F)(F)C(F)(F)F)OC [Dimethoxymethyl((perfluorohexyl)ethyl)silane] (in DMSO)
Procedure: as §1

Octafluoroadipic acid = compound: O=C(O)C(F)(F)C(F)(F)C(F)(F)C(F)(F)C(=O)O [Octafluoroadipic acid] (in DMSO)
Procedure: as §1

Perfluoroundecanoic acid = compound: O=C(O)C(F)(F)C(F)(F)C(F)(F)C(F)(F)C(F)(F)C(F)(F)C(F)(F)C(F)(F)C(F)(F)C(F)(F)F [Perfluoroundecanoic acid] (in DMSO); conditions: 6700 nM
Procedure: as §1

Perfluorononanoic acid = compound: O=C(O)C(F)(F)C(F)(F)C(F)(F)C(F)(F)C(F)(F)C(F)(F)C(F)(F)C(F)(F)F [Perfluorononanoic acid] (in DMSO)
Procedure: as §1

[3] = compound: O=C(O)C(F)(OC(F)(F)C(F)(F)C(F)(F)F)C(F)(F)F [Ammonium perfluoro-2-methyl-3-oxahexanoate] (in Water)
Procedure: as §1

[4] = compound: OCC(F)(F)OC(F)(F)C(F)(F)OC(F)(F)C(F)(F)OC(F)(F)CO [1H,1H,11H,11H-Perfluorotetraethylene glycol] (in DMSO)
Procedure: as §1

[5] = compound: OCCC(F)(F)C(F)(F)C(F)(F)C(F)(F)F [4:2 Fluorotelomer alcohol] (in DMSO)
Procedure: as §1

| Test System | level (log10) ([1]; 6700 nM) | level (log10) ([1]; 20000 nM) | level (log10) ([1]; 60000 nM) | level (log10) ([2]; 6700 nM) | level (log10) ([2]; 20000 nM) | level (log10) (Octafluoroadipic acid; 6700 nM) | level (log10) (Octafluoroadipic acid; 20000 nM) | level (log10) (Octafluoroadipic acid; 60000 nM) | level (log10) (Perfluoroundecanoic acid) | level (log10) (Perfluorononanoic acid; 6700 nM) | level (log10) (Perfluorononanoic acid; 20000 nM) | level (log10) ([3]; 6700 nM) | level (log10) ([3]; 20000 nM) | level (log10) ([3]; 60000 nM) | level (log10) ([4]; 6700 nM) | level (log10) ([4]; 20000 nM) | level (log10) ([4]; 60000 nM) | level (log10) ([5]; 6700 nM) | level (log10) ([5]; 20000 nM) | level (log10) ([5]; 60000 nM) |
| --- | --- | --- | --- | --- | --- | --- | --- | --- | --- | --- | --- | --- | --- | --- | --- | --- | --- | --- | --- | --- |
| CASM3C:CD87/uPAR | -0.016 ± 0.042 | -0.028 ± 0.025 | -0.012 ± 0.0057 | 0.007 ± 0.011 | -0.0045 ± 0.026 | -0.012 ± 0.0057 | -0.014 ± 0.0085 | -0.0015 ± 0.0064 | -0.0285 ± 0.0078 | -0.02 ± 0.0071 | 0.023 | -0.031 ± 0.076 | 0.0075 ± 0.011 | 0.014 ± 0.027 | -0.019 ± 0.024 | -0.026 ± 0.034 | -0.011 ± 0.018 | 0.0005 ± 0.023 | 0.007 ± 0.013 | -0.003 ± 0.021 |
| CASM3C:CD106/VCAM-1 | -0.007 ± 0.0042 | -0.027 ± 0.0057 | -0.0175 ± 0.013 | -0.0265 ± 0.012 | -0.0155 ± 0.005 | -0.0055 ± 0.011 | -0.011 ± 0.013 | -0.019 | -0.032 ± 0.034 | 0.013 ± 0.0042 | -0.0245 ± 0.1 | -0.0955 ± 0.061 | -0.0645 ± 0.005 | -0.083 ± 0.011 | 0.025 ± 0.011 | 0.017 ± 0.011 | 0.032 ± 0.0085 | 0.0435 ± 0.023 | -0.0035 ± 0.023 | -0.0005 ± 0.042 |
| CASM3C:CD141/Thrombomodulin | -0.0195 ± 0.025 | -0.027 ± 0.011 | -0.011 ± 0.0042 | -0.008 ± 0.0057 | -0.015 ± 0.021 | 0.0115 ± 0.0021 | 0.0105 ± 0.021 | 0.0065 ± 0.022 | -0.06 ± 0.12 | 0.0145 ± 0.0092 | 0.0335 ± 0.016 | 0.113 ± 0.0057 | 0.0435 ± 0.11 | 0.035 ± 0.038 | -0.0135 ± 0.015 | -0.009 ± 0.0085 | 0.035 ± 0.0042 | -0.018 ± 0.075 | 0.0295 ± 0.035 | 0.0295 ± 0.043 |
| CASM3C:CD142/Tissue Factor | -0.021 ± 0.016 | -0.012 ± 0.0028 | 0.0135 ± 0.026 | -0.001 ± 0.011 | -0.0075 ± 0.005 | -0.011 ± 0.0071 | -0.0045 ± 0.0092 | -0.0145 ± 0.00071 | -0.066 ± 0.041 | -0.093 ± 0.064 | -0.115 ± 0.14 | 0.022 ± 0.013 | -0.0045 ± 0.028 | -0.009 ± 0.089 | -0.0165 ± 0.032 | -0.024 ± 0.013 | -0.0125 ± 0.0035 | -0.014 ± 0.079 | -0.028 ± 0.0014 | 0.0225 ± 0.046 |
| CASM3C:CXCL8/IL-8 | -0.006 | -0.006 ± 0.0028 | 0.008 ± 0.0042 | -0.004 | 0.004 ± 0.0085 | -0.0005 ± 0.0092 | -0.002 ± 0.0071 | 0.0045 ± 0.022 | 0.0005 ± 0.0021 | 0.0075 ± 0.013 | 0.031 ± 0.033 | 0.005 ± 0.0042 | 0.034 ± 0.024 | 0.056 ± 0.024 | 0.002 ± 0.016 | -0.0085 ± 0.016 | -0.004 ± 0.011 | -0.002 ± 0.0028 | 0.0035 ± 0.026 | 0.019 ± 0.031 |
| CASM3C:CXCL9/MIG | -0.0095 ± 0.005 | -0.0065 ± 0.015 | 0.008 ± 0.03 | -0.012 ± 0.017 | -0.003 ± 0.013 | -0.0055 ± 0.0078 | -0.01 ± 0.0071 | 0.001 ± 0.021 | -0.027 ± 0.0099 | 0.014 ± 0.028 | 0.005 ± 0.057 | 0.039 ± 0.038 | 0.05 ± 0.0071 | 0.0595 ± 0.015 | 0.0135 ± 0.028 | 0.0135 ± 0.013 | 0.0415 ± 0.00071 | 0.008 ± 0.0014 | 0.0085 ± 0.029 | 0.0245 ± 0.056 |
